The source of these data is US20250081967A1, “PESTICIDALLY ACTIVE HETEROCYCLIC DERIVATIVES WITH SULFOXIMINE CONTAINING SUBSTITUENTS” (SYNGENTA CROP PROTECTION AG, priority 2021, published 2025).

Common to all, as to assay type: in vivo
For one data set, the system named is Diabrotica balteata. The data set is described as follows: Activity against Diabrotica balteata (corn root worm), maize sprouts. To be noted: for percent effect (mortality or growth inhibition) at 200 ppm: 96 h, application rate 200 ppm, L2 larvae, 4 days after infestation, read-out: effect in at least one of the two categories (mortality or growth inhibition); for mortality at 50 ppm / Mortality (%): concentration 50 ppm. As for the experimental part: Example B3: Activity Against Diabrotica Balteata (Corn Root Worm)
Maize sprouts placed onto an agar layer in 24-well microtiter plates were treated with aqueous test solutions prepared from 10′000 ppm DMSO stock solutions by spraying. After drying, the plates were infested with L2 larvae (6 to 10 per well). The samples were assessed for mortality and growth inhibition in comparison to untreated samples 4 days after infestation.

In a further data set the test system is Plutella xylostella. Kind of data set: Activity against Plutella xylostella (diamond back moth), artificial diet, eggs. To be noted: 192 h, application rate 200 ppm, 8 days after infestation, read-out: effect in at least one of the two categories (mortality or growth inhibition). The method, then: Example B9: Activity Against Plutella xylostella (Diamond Back Moth)
24-well microtiter plates with artificial diet were treated with aqueous test solutions prepared from 10′000 ppm DMSO stock solutions by pipetting. After drying, Plutella eggs were pipetted through a plastic stencil onto a gel blotting paper and the plate was closed with it. The samples were assessed for mortality and growth inhibition in comparison to untreated samples 8 days after infestation.

For data set [1], the system named is Myzus persicae. The data set is described as follows: Activity against Myzus persicae (green peach aphid), feeding/contact activity, sunflower leaf discs. To be noted: Myzus persicae, foliar; for mortality at 200 ppm: 144 h, application rate 200 ppm, feeding/contact, 6 days after infestation. The method, then: Example B4: Activity Against Myzus persicae (Green Peach Aphid) Feeding/Contact Activity
Sunflower leaf discs were placed on agar in a 24-well microtiter plate and sprayed with aqueous test solutions prepared from 10′000 ppm DMSO stock solutions. After drying, the leaf discs were infested with an aphid population of mixed ages. The samples were assessed for mortality 6 days after infestation.

The test system of the next data set is Bemisia tabaci. Kind of data set: Activity against Bemisia tabaci (cotton white fly), cotton leaf discs. The settings on record: for mortality at 200 ppm / mortality at 12.5 ppm: foliar; for mortality at 200 ppm: 144 h, application rate 200 ppm, adult white flies, 6 days after incubation. As for the experimental part:
Example B6: Activity Against Bemisia tabaci (Cotton White Fly)
Cotton leaf discs were placed on agar in 24-well microtiter plates and sprayed with aqueous test solutions prepared from 10′000 ppm DMSO stock solutions. After drying the leaf discs were infested with adult white flies. The samples were checked for mortality 6 days after incubation.

Data set [2] concerns Myzus persicae. Kind of data set: Activity against Myzus persicae (green peach aphid), systemic activity, pea seedlings. The settings on record: for mortality at 24 ppm: Myzus persicae. As for the experimental part: Example B5: Activity Against Myzus persicae (Green Peach Aphid) Systemic Activity
Roots of pea seedlings infested with an aphid population of mixed ages were placed directly in the aqueous test solutions prepared from 10′000 DMSO stock solutions. The samples were assessed for mortality 6 days after placing seedlings in test solutions.

The next data set deals with Spodoptera littoralis. Kind of data set: Activity against Spodoptera littoralis (Egyptian cotton leaf worm), cotton leaf discs. The settings on record: foliar, 72 h, application rate 200 ppm, L1 larvae, 3 days after infestation, read-out: control (mortality, anti-feeding effect or growth inhibition). As for the experimental part: Example B1: Activity Against Spodoptera littoralis (Egyptian Cotton Leaf Worm)
Cotton leaf discs were placed onto agar in 24-well microtiter plates and sprayed with aqueous test solutions prepared from 10′000 ppm DMSO stock solutions. After drying the leaf discs were infested with five L1 larvae. The samples were assessed for mortality, anti-feeding effect, and growth inhibition in comparison to untreated samples 3 days after infestation. Control of Spodoptera littoralis by a test sample is given when at least one of the categories mortality, anti-feedant effect, and growth inhibition is higher than the untreated sample.

Setting [3] is: 144 h, test rate 24 ppm, systemic, 6 days after placing seedlings in test solutions.
Where [4] appears, read: Myzus persicae (systemic), concentration 24 ppm.

In the case of `CCS(=N)(=O)c1cc(C(C)(C)C#N)cnc1-c1nc2cc(C(F)(F)F)ncc2n1C` (single isomer, unassigned) [Compound P4-B, 2-[5-(ethylsulfonimidoyl)-6-[3-methyl-6-(trifluoromethyl)imidazo[4,5-c]pyridin-2-yl]-3-pyridyl]-2-methyl-propanenitrile], the percent effect (mortality or growth inhibition) at 200 ppm in the data set with Diabrotica balteata and in the data set on Plutella xylostella was at least 80% each time.

Broadly, the mortality is the share of the test organisms that died. Low values mean more survivors, high ones fewer survivors. As for `CCS(=N)(=O)c1cc(C2(C#N)CC2)cnc1-c1nc2cc(C(F)(F)F)cnc2n1C` (single isomer, unassigned) [Compound P16-A, 1-[5-(ethylsulfonimidoyl)-6-[3-methyl-6-(trifluoromethyl)imidazo[4,5-b]pyridin-2-yl]-3-pyridyl]cyclopropanecarbonitrile], the percent effect (mortality or growth inhibition) at 200 ppm in the data set on Diabrotica balteata and with Plutella xylostella was at least 80% throughout. For the same molecule, the mortality at 200 ppm with Myzus persicae [1] and with Bemisia tabaci was at least 80% throughout. In the data set on Myzus persicae [1] (Myzus persicae (feeding/contact), concentration 3.125 ppm), this molecule came in with a mortality at 3.125 ppm of 100%. The mortality at 12.5 ppm with Bemisia tabaci (concentration 12.5 ppm) is 100%. In the data set with Myzus persicae [2] (setting [3]), the mortality at 24 ppm is at least 80%.

With `CCS(=N)(=O)c1cc(OC(C)(C)C#N)cnc1-c1nc2cc(C(F)(F)F)nnc2n1C` (single isomer, unassigned) [Compound P15-A, 2-[[5-(ethylsulfonimidoyl)-6-[7-methyl-3-(trifluoromethyl)imidazo[4,5-c]pyridazin-6-yl]-3-pyridyl]oxy]-2-methyl-propanenitrile], the percent effect (mortality or growth inhibition) at 200 ppm in the data set on Diabrotica balteata and in the data set on Plutella xylostella was at least 80% each time. This molecule also had a mortality at 12.5 ppm in the data set with Diabrotica balteata (concentration 12.5 ppm) of 80%. Moreover, the mortality at 200 ppm in the data set on Myzus persicae [1] and in the data set on Bemisia tabaci was at least 80% in each case. The mortality at 24 ppm in the data set with Myzus persicae [2] (setting [3]) is at least 80%. In addition, the percent control (mortality, anti-feedant effect or growth inhibition) at 200 ppm with Spodoptera littoralis is at least 80%.

With `CC[S@@](=N)(=O)c1cc(OC(C)(C)C#N)cnc1-c1nc2cc(C(F)(F)F)cnc2n1C` [Compound P9-A, (R)-2-[[5-(ethylsulfonimidoyl)-6-[3-methyl-6-(trifluoromethyl)imidazo[4,5-b]pyridin-2-yl]-3-pyridyl]oxy]-2-methyl-propanenitrile], the percent effect (mortality or growth inhibition) at 200 ppm with Diabrotica balteata and in the data set with Plutella xylostella was at least 80% each time. In the data set on Diabrotica balteata, the mortality at 50 ppm was found to be 80%. Moreover, the mortality at 200 ppm with Myzus persicae [1] and in the data set with Bemisia tabaci was at least 80% in each case. Further, the mortality at 24 ppm in the data set with Myzus persicae [2] (setting [3]) is at least 80%; with Myzus persicae [2] (setting [4]) it was 100%. Further, in the data set with Spodoptera littoralis, the percent control (mortality, anti-feedant effect or growth inhibition) at 200 ppm was at least 80%.

Consider `CCS(=N)(=O)c1cc(OC(C)(C)C#N)c(C)nc1-c1nc2cc(C(F)(F)F)ncc2n1C` (single isomer, unassigned) [Compound P17-A, 2-[[5-(ethylsulfonimidoyl)-2-methyl-6-[3-methyl-6-(trifluoromethyl)imidazo[4,5-c]pyridin-2-yl]-3-pyridyl]oxy]-2-methyl-propanenitrile], for which the percent effect (mortality or growth inhibition) at 200 ppm with Diabrotica balteata and with Plutella xylostella was at least 80% throughout. Besides, the mortality at 200 ppm with Myzus persicae [1] and in the data set on Bemisia tabaci was at least 80% each time. For the same molecule, the mortality at 24 ppm in the data set on Myzus persicae [2] (setting [3]) was at least 80%.

For the molecule `CCS(=N)(=O)c1cc(C(C)(C)C#N)cnc1-c1nc2cc(C(F)(F)F)cnc2n1C` (single isomer, unassigned) [Compound P12-A, 2-[5-(ethylsulfonimidoyl)-6-[3-methyl-6-(trifluoromethyl)imidazo[4,5-b]pyridin-2-yl]-3-pyridyl]-2-methyl-propanenitrile], the percent effect (mortality or growth inhibition) at 200 ppm in the data set on Diabrotica balteata and in the data set on Plutella xylostella was at least 80% throughout. Moreover, the mortality at 200 ppm in the data set on Myzus persicae [1] and in the data set with Bemisia tabaci was at least 80% throughout. The molecule further showed a mortality at 24 ppm with Myzus persicae [2] (setting [3]) of at least 80%.

As to `CCS(=N)(=O)c1cc(OC(C)(C)C#N)cnc1-c1nc2cc(C(F)(F)F)ncc2n1C` (single isomer, unassigned) [Compound P13-A, 2-[[5-(ethylsulfonimidoyl)-6-[3-methyl-6-(trifluoromethyl)imidazo[4,5-c]pyridin-2-yl]-3-pyridyl]oxy]-2-methyl-propanenitrile], the percent effect (mortality or growth inhibition) at 200 ppm in the data set with Diabrotica balteata and in the data set with Plutella xylostella was at least 80% in each case. The mortality at 50 ppm in the data set on Diabrotica balteata turned out to be 80%. Moreover, the mortality at 200 ppm in the data set with Myzus persicae [1] and in the data set on Bemisia tabaci was at least 80% throughout. For the same molecule, in the data set on Myzus persicae [1] (Myzus persicae (feeding/contact), concentration 12.5 ppm), the mortality at 12.5 ppm came to 80%. Besides, the mortality at 24 ppm in the data set on Myzus persicae [2] (setting [3]) is at least 80%.

For `CC[S@](=N)(=O)c1cc(OC(C)(C)C#N)cnc1-c1nc2cc(C(F)(F)F)cnc2n1C` [Compound P9-B, (S)-2-[[5-(ethylsulfonimidoyl)-6-[3-methyl-6-(trifluoromethyl)imidazo[4,5-b]pyridin-2-yl]-3-pyridyl]oxy]-2-methyl-propanenitrile], the percent effect (mortality or growth inhibition) at 200 ppm in the data set with Diabrotica balteata and in the data set on Plutella xylostella was at least 80% each time. The same molecule gave a mortality at 50 ppm in the data set on Diabrotica balteata of 100%. Moreover, the mortality at 200 ppm with Myzus persicae [1] and with Bemisia tabaci was at least 80% in each case. Moreover, the mortality at 24 ppm with Myzus persicae [2] (setting [3]) was at least 80%; in the data set on Myzus persicae [2] (setting [4]) it was 100%. Moreover, the percent control (mortality, anti-feedant effect or growth inhibition) at 200 ppm with Spodoptera littoralis was at least 80%.

Molecule `CCS(=N)(=O)c1cc(OC(C)(C)C#N)cnc1-c1cn2ccc(C(F)(F)F)cc2n1` (single isomer, unassigned) [Compound P3-B, 2-[[5-(ethylsulfonimidoyl)-6-[7-(trifluoromethyl)imidazo[1,2-a]pyridin-2-yl]-3-pyridyl]oxy]-2-methyl-propanenitrile] had a mortality at 24 ppm in the data set on Myzus persicae [2] (setting [3]) of at least 80%. Further, the percent effect (mortality or growth inhibition) at 200 ppm in the data set on Plutella xylostella was at least 80%.

Take `CCS(=N)(=O)c1cc(C2(C#N)CC2)ccc1-c1nc2cc(C(F)(F)F)cnc2n1C` (single isomer, unassigned) [Compound P6-B, 1-[3-(ethylsulfonimidoyl)-4-[3-methyl-6-(trifluoromethyl)imidazo[4,5-b]pyridin-2-yl]phenyl]cyclopropanecarbonitrile]: the “Mortality (%)” value came out at 80% in the data set on Diabrotica balteata and 100% in the data set on Myzus persicae [2] (Myzus persicae (systemic), concentration 6 ppm). The percent effect (mortality or growth inhibition) at 200 ppm with Plutella xylostella was at least 80%. For the same molecule, the percent control (mortality, anti-feedant effect or growth inhibition) at 200 ppm in the data set with Spodoptera littoralis was at least 80%.

Regarding `CCS(=N)(=O)c1cc(C2(C#N)CC2)cnc1-c1nc2cc(C(F)(F)F)ncc2n1C` (single isomer, unassigned) [Compound P10-A, 1-[5-(ethylsulfonimidoyl)-6-[3-methyl-6-(trifluoromethyl)imidazo[4,5-c]pyridin-2-yl]-3-pyridyl]cyclopropanecarbonitrile], the percent effect (mortality or growth inhibition) at 200 ppm with Diabrotica balteata and in the data set on Plutella xylostella was at least 80% in each case. Moreover, the mortality at 200 ppm in the data set with Myzus persicae [1] and in the data set on Bemisia tabaci was at least 80% each time. In the data set with Myzus persicae [1] (Myzus persicae (feeding/contact), concentration 0.781 ppm), this molecule returned a mortality at 0.781 ppm of 80%. In addition, the mortality at 12.5 ppm with Bemisia tabaci (concentration 12.5 ppm) came to 80%. The mortality at 24 ppm with Myzus persicae [2] (setting [3]) is at least 80%.

For `CCS(=N)(=O)c1cc(C2(C#N)CC2)ccc1-c1nc2cc(C(F)(F)F)ncc2n1C` (single isomer, unassigned) [Compound P18-A, 1-[3-(ethylsulfonimidoyl)-4-[3-methyl-6-(trifluoromethyl)imidazo[4,5-c]pyridin-2-yl]phenyl]cyclopropanecarbonitrile], the percent effect (mortality or growth inhibition) at 200 ppm in the data set with Diabrotica balteata and in the data set with Plutella xylostella was at least 80% each time. Besides, the “Mortality (%)” value with Diabrotica balteata and in the data set on Bemisia tabaci (concentration 12.5 ppm) was 100% throughout. The mortality at 200 ppm in the data set on Myzus persicae [1] and in the data set on Bemisia tabaci was at least 80% in each case. The molecule also displayed a mortality at 24 ppm in the data set with Myzus persicae [2] (setting [3]) of at least 80%.
